In US20110281762A1, “High throughput screening for anaerobic microorganisms” (priority 2010, published 2011):
pKd: −log10 of the molar value.

Assays:
[1] = test system: all six Bacteroides species; experiment: Growth of six Bacteroides species on fructose-based glycans; type: cell-based
From the text: (§1) In all six Bacteroides species, the HTCS is adjacent to a predicted fructokinase, a putative inner membrane monosaccharide importer, and GH32-family glycoside hydrolases. In each genome, except that of B. vulgatus, the syntenic regions also contain a susC/susD homologous pair. […] All Bacteroides species tested, except B. vulgatus, were able to grow efficiently using one of the long-chain fructans, inulin or levan. The inability of B. vulgatus to grow on long-chain fructans is consistent with the absence of a susC/susD-like pair within its locus. B. caccae, B. ovatus, B. fragilis and B. uniformis can utilize inulin with efficiency similar to their use of glucose. This contrasts with Bt inulin use, which is only observed after three days (FIG. 5). Bt was the only species tested able to use levan, which was particularly striking when considering the overall similarity in PUL structure between Bt, B. caccae, and B. ovatus.
(§2) Culturing bacteria. Bacteria were cultured in TYG and MM as described previously. The following bacteria were used: Bt (VPI-5482), B. caccae (ATCC-43185), B. ovatus (ATCC-8483), B. fragilis (NCTC-9343), B. uniformis (ATCC-8492), and B. vulgatus (ATCC-8482). Growth curves in MM were obtained using a Powerwave (Biotek) reading OD600 every 30 min from anaerobic cultures at 37° C.

[2] = test system: Bt-ΔBT1754; experiment: Growth of isogenic mutant Bt-ΔBT1754 in minimal media; type: cell-based, Bacteroides thetaiotaomicron; details: fructose-based minimal media
From the text: The hybrid two-component system BT1754 is required for efficient fructan utilization by Bt. We assessed the ability of an isogenic mutant of Bt lacking the BT1754 gene to grow in a panel of fructose-based minimal media (MM) to test if upregulation of the PUL was dependent upon the HTCS signaling sensor. An in-frame, unmarked deletion of BT1754 was constructed using a standard counter-selectable allele-exchange procedure. […] Complementation of this mutant was achieved by introducing the genomic fragment containing BT1754 and its 5′ intergenic upstream promoter region in trans.
as §2

[3] = test system: Bacteroides thetaiotaomicron (Bt); experiment: Growth of Bt in minimal medium with a fructose-based carbohydrate as only carbon source; type: cell-based; details: substance as only carbon and energy source; for doubling time: Bt
From the text: Bt upregulates its putative fructan PUL when grown on fructose-containing carbohydrates We inoculated minimal medium containing specific fructose-based carbohydrates as the only carbon and energy source with Bt to test if the bacterium is competent to grow on fructans. Bt grew on a broad range of fructose-based glycans, including free fructose, sucrose, levan (high MW fructose polymer with predominantly β2-6-linkages), and fructo-oligosaccharides (FOS; short-chain β2-1 polymers of 2-10 fructose units) (FIG. 1C). However, Bt grew poorly on inulin (β2-1 fructose polymer with an average degree of polymerization of ˜25), with growth only apparent three days after inoculation. Doubling times on simple monosaccharides and disaccharide were similar to one another.
as §2

[4] = molecular target: periplasmic domain of BT1754 (BT1754-PD; residues 29-343) (Bacteroides thetaiotaomicron, UniProt Q8A6X1); experiment: Isothermal calorimetry binding to the periplasmic domain of BT1754
From the text: The periplasmic domain of the hybrid two-component system BT1754 binds to monomeric fructose. One of the key unanswered questions concerning the HTCS family, and many extracellular sensory systems, is the identity of the molecular triggers for signaling events. […] (FIG. 2B). […] As PBPs are known to bind small molecules such as sugars, we expressed the periplasmic domain of BT1754 (BT1754-PD; residues 29-343) in a recombinant form and tested for binding to a range of monosaccharides and fructan-derived oligosaccharides to see if direct interaction with a specific carbohydrate is the means of signal perception in BT1754.
Isothermal titration calorimetry. Measurements were carried out essentially as described previously, except that a Microcal VP-ITC machine was used, and proteins were dialyzed into 20 mM Tris-HCl, pH8.0. The assumption that n=1 for BT1762 binding to levan was based on the structure of the starch binding SusD.

[5] = test system: Bt and B. caccae; experiment: Dietary inulin in gnotobiotic mice bi-associated with Bt and B. caccae, relative fecal proportion by qPCR; type: in vivo, germ-free Swiss-Webster mice
From the text: (§3) Two groups of 8-12-week old, germ-free mice were colonized with equivalent quantities (10^8 colony forming units, CFU) of Bt and B. caccae or Bt and B. vulgatus. Each mouse was maintained on a standard polysaccharide-rich diet for the first 7 days of colonization and then switched to a diet in which the sole polysaccharide was inulin (10% w/w) for an additional 14 days. Mice were individually housed throughout the experiment to ensure no cross inoculation could occur and bedding was changed every two days. Total bacterial colonization density was determined by assessing the CFUs in feces over 21 days. The change in each species' relative abundance before and after dietary inulin supplementation was assessed using species-specific primers in a quantitative PCR assay.
In the previous experiment, inulin was the sole polysaccharide in the diet. We wondered whether we would observe the same inulin-induced increase in B. caccae relative to Bt if other polysaccharides were also present in the diet. To test this, gnotobiotic mice were co-colonized with Bt and B. caccae and maintained on the standard diet with inulin supplementation in the water (1% w/v). Over the 14 days the mice ingested an average of 117±6 mg of inulin daily via the water (compared to 355±7 mg/day with the inulin diet). Fecal samples were tested by qPCR over the course of the 21-day experiment for relative levels of Bt or B. caccae.
We decided to feed mice a custom diet deficient in all polysaccharides and supplement inulin in the water to determine whether a lower dose of inulin in the absence of other polysaccharides was sufficient to provide B. caccae a competitive advantage over Bt in vivo. Under this experimental paradigm the mice consumed an average of 97 mg of inulin per day. After. 14 days on inulin-water supplementation, the proportion of B. caccae increased by 26±8% (FIG. 6D). […] The wide range of polysaccharides present in the standard diet allows Bt to compete effectively with B. caccae even in the presence of inulin.
(§4) Bacterial colonization and density determination of germ-free mice. Germ-free Swiss-Webster mice were maintained in gnotobiotic isolators and fed an autoclaved standard diet (Purina LabDiet 5K67) or custom diet (Bio-Serv, http://bio-serv.com/), in accordance with A-PLAC, the Stanford IACUC. Mice were bi-associated using oral gavage (10^8 CFU of each bacterial species). Relative densities of bacteria were determined by qPCR using strain-specific primers.

[6] = test system: Bt and B. vulgatus; experiment: Dietary inulin in gnotobiotic mice bi-associated with Bt and B. vulgatus, relative fecal proportion by qPCR; type: in vivo, germ-free Swiss-Webster mice
From the text: as §3, §4

[7] = test system: B. uniformis; experiment: Growth on long-chain fructan; type: cell-based; details: efficiency similar to use of glucose
From the text: as §1, §2

[8] = test system: B. fragilis; experiment: Growth on long-chain fructan; type: cell-based; details: efficiency similar to use of glucose
From the text: as §1, §2

[9] = test system: B. ovatus; experiment: Growth on long-chain fructan; type: cell-based; details: efficiency similar to use of glucose
From the text: as §1, §2

[10] = test system: B. caccae; experiment: Growth on long-chain fructan; type: cell-based; details: efficiency similar to use of glucose
From the text: as §1, §2

[11] = test system: B. vulgatus; experiment: Growth on long-chain fructan; type: cell-based
From the text: as §1, with “Bt was the only species tested able to use levan, which was particularly striking when considering the overall similarity in PUL structure between Bt, B. caccae, and B. ovatus.” left out
Genomic content of Bacteroides species predicts changes in microbiota composition induced by an inulin-based diet. The differences in ability to utilize fructans between the Bacteroides species implies that the relative success of a species within a gut ecosystem may be determined, in part, by the abundance and type of fructan in the host diet. […] We constructed defined two-member communities of Bacteroides species within the intestines of gnotobiotic mice to test how model microbiotas respond in vivo to dietary inulin, which, unlike levan, is available in pure form in quantities sufficient to conduct such a study. […]

[12] = after two weeks on inulin diet (day 21), n=7 mice

Sequence of periplasmic domain of BT1754 (BT1754-PD; residues 29-343) (Q8A6X1 entry or part of it, change not shown): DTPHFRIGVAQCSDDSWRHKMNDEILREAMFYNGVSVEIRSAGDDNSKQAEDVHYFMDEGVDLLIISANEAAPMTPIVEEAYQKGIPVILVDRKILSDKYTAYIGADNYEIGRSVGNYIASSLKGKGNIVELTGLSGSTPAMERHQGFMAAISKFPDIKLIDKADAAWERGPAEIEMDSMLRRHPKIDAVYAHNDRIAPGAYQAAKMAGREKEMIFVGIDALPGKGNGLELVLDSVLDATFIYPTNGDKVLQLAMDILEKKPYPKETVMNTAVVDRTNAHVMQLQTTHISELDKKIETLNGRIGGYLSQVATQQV

Compound	growth [1]	growth of Bt-ΔBT1754 [2]	growth of Bt [3]	doubling time [3]	other results
O=C(CO)[C@@H](O)[C@H](O)[C@H](O)CO [fructose]	competent for growth	retarded growth	grew on		pKd [4]: ~5.70
O=C[C@H](O)[C@H](O)[C@H](O)CO [ribose]					interaction with BT1754-PD ([4]; isothermal calorimetry): does not interact
OC[C@H]1O[C@@](CO)(O[C@H]2O[C@H](CO)[C@@H](O)[C@H](O)[C@H]2O)[C@@H](O)[C@@H]1O [sucrose]	competent for growth	retarded growth	grew on		
fructo-oligosaccharides [FOS]	competent for growth	failed to grow	grew on	5.6 h	
inulin		failed to grow	grew poorly	96.4 h	B. caccae proportion of community [5, 12]: 51±6%; Bt proportion of community [5, 12]: approximately 49±6%; increase in proportion of B. caccae ([5]; custom diet deficient in all polysaccharides, inulin in the water, 14 days): 26±8%; increase in proportion of B. caccae ([5]; inulin-only diet experiment, day 6 to day 21): 36±7%; B. caccae proportion of community ([5]; six days after change to inulin-based diet (10% w/w)): 20±4%; Bt proportion of community ([5]; six days after change to inulin-based diet (10% w/w, sole polysaccharide), 87±3% before switch): 80±4%; change in relative colonization of Bt and B. caccae versus controls ([5]; standard diet with inulin in the water (1% w/v), 14 days): no statistical difference; change in community composition ([6]; after 6 days on inulin-based diet): did not exhibit any significant trend; Bt abundance ([6]; day 21, inulin enriched diet, 74±3% on day 6, p=0.1, n=3 mice): 84±5%; inulin utilization [7]: can utilize; inulin utilization [8]: can utilize; inulin utilization [9]: can utilize; inulin utilization [10]: can utilize; inulin utilization [11]: unable to utilize
levan		failed to grow	grew on	2.7 h	
